These results are taken from patent US10940173B2, “Cannabis oil extracts and compositions” (priority 2015, dated 2021).

The structures appear in SMILES notation. Read-outs that look alike come from different tables or passages of the source. Where only a bound is given, the exact number is not on record here.

Holding throughout (format): cell-based
Assay [1] concerns the target T1, CNR1 (also known as CB1) (Homo sapiens, UniProt P21554). The conditions noted are these: read-out: CNR1 cAMP EC50.
For assay [2], the target named is T2, CNR2 (also known as CB2) (Homo sapiens, UniProt P34972). Put plainly: cAMP competitive inhibition immunoassay (HitHunter), CNR2. The settings on record: cAMP assay. For orientation: Changes in cAMP serve as a functional read-out for many G protein-coupled receptors.
In assay [3] the target is T1, CNR1 (also known as CB1). Set-up: β-galactosidase enzyme fragment (complementation partner). The settings on record: read-out: CNR1 β-Arrestin EC50.
Assay [4] addresses T2, CNR2 (also known as CB2). Put plainly: β-arrestin GPCR assay (PathHunter), CNR2. Also noted: β-galactosidase enzyme fragment (complementation partner). The conditions noted are these: β-arrestin recruitment. (In general: Recruitment of arrestin is a read-out of receptor activation apart from second messengers.)

T1 sequence (P21554 whole entry): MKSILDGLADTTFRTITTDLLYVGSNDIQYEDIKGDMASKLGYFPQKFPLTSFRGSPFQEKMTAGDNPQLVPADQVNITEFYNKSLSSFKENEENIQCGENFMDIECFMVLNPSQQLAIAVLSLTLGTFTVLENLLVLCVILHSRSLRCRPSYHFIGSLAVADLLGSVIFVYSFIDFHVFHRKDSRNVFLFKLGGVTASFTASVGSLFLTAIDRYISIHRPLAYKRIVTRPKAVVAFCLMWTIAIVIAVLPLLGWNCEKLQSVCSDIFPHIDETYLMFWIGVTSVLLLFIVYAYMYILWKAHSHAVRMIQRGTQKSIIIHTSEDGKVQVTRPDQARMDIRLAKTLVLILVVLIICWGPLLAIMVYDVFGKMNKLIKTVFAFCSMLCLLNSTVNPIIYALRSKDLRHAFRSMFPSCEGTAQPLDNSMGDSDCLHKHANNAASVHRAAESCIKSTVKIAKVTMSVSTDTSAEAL
T2 sequence (P34972 whole entry, the tested form may be a part): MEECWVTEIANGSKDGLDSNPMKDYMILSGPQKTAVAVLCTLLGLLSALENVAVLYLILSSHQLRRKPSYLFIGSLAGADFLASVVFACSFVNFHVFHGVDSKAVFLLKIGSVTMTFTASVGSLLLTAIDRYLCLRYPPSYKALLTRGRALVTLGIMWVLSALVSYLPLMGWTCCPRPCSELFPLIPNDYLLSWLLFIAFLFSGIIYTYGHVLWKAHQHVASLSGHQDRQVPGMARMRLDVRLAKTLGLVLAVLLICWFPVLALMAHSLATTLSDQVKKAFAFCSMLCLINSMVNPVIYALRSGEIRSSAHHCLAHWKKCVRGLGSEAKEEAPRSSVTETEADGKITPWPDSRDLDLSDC

By EC50 is commonly meant the concentration needed to bring the measured effect to its halfway point. Consider `CCCCCc1cc(O)c2c(c1)OC(C)(C)[C@@H]1CCC(CO)=C[C@@H]21` [Example 11-OH-THC], for which the EC50 was 10.8 nM at CNR1 (also known as CB1) [1], 571 nM at CNR2 (also known as CB2) [2], greater than 16700 nM on CNR1 (also known as CB1) [3] and greater than 16700 nM on CNR2 (also known as CB2) [4].
